What all share (assay type): cell-based
Assay [1] has as its target human α1G T-type channels (Homo sapiens, UniProt O43497). Nature of the assay: T-type calcium channel block, whole cell patch clamp, α1G. As to conditions: HEK cells stably expressing human α1G; mainly non-inactivated protocol; values above 10,000 nM represented as 10000. The method, then:
(§1) T-type calcium channel blocking activity was assayed in human embryonic kidneycells, HEK 293 (Invitrogen), stably transfected with the T-type calcium channel subunits. Briefly, cells were cultured in Dulbecco's modified eagle medium (DMEM) supplemented with 10% fetal bovine serum, 200 U/ml penicillin, and 0.2 mg/mL streptomycin at 37° C. with 5% CO2. At 85% confluency, cells were split with 0.25% trypsin/1 mM EDTA and plated at 10% confluency on glass coverslips. At 12 hours, the medium was replaced, and the cells stably transfected using a standard calcium phosphate protocol and the appropriate calcium channel cDNA's. Fresh DMEM was supplied, and the cells transferred to 28° C./5% CO2.
(§2) Standard patch-clamp techniques were employed to identify blockers of T-type currents. Briefly, previously described HEK cell lines stably expressing human α1G, α1H, and α1I T-type channels were used for all the recordings (passage #: 4-20, 37° C., 5% CO2). Whole cell patch clamp experiments were performed using an Axopatch 200B amplifier (Axon Instruments, Burlingame, Calif.) linked to a personal computer equipped with pCLAMP software. Data were analyzed using Clampfit (Axon Instruments) and SigmaPlot 4.0 (Jandel Scientific). To obtain T-type currents, plastic dishes containing semi-confluent cells were positioned on the stage of a ZEISS AXIOVERT S100 microscope after replacing the culture medium with external solution (Table 2). Whole-cell patches were obtained using pipettes (borosilicate glass with filament, O.D.: 1.5 mm, I.D.: 0.86 mm, 10 cm length), fabricated on a SUTTER P-97 puller with resistance values of ˜5 MΩ (Table 3).
(§3) T-type currents were reliably obtained by using two voltage protocols: • “non-inactivating,” and • “inactivation.”
(§4) Test compounds were dissolved in external solution, 0.1-0.01% DMSO. After ˜10 minutes rest, they were applied by gravity close to the cell using a WPI microfil tubing. The “non-inactivated” pre-pulse was used to examine the resting block of a compound. The “inactivated” protocol was employed to study voltage-dependent block.
Background: The patch-clamp technique gives a direct electrical read-out from membranes.

Assay [2] concerns the target human α1H T-type channels (Homo sapiens, UniProt O95180). Nature of the assay: T-type calcium channel block, whole cell patch clamp, α1H. As to conditions: HEK cells stably expressing human α1H; mainly non-inactivated protocol; values above 10,000 nM represented as 10000. The method, then: as §1, §2, §3, §4
The target in assay [3] is N-type calcium channel subunits (α1B, α2δ, and β3a) (Homo sapiens, UniProt Q00975). Nature of the assay: Block of Cav2.2 channel, whole cell voltage clamp, manual and PatchXpress. The following applies: Table 5; table follows Assay Example 3 (whole cell voltage clamp / PatchXpress); assay not given. The procedure, abridged: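 Percent block taken as current amplitude ratio with versus without compound, applied in rising doses; IC50 fitted where one cell received multiple doses. Protocol: 50 ms pulses to +20 mV at 0.067 Hz from […] or −90 mV holding; P/n leak subtraction, no junction-potential correction; manual and PatchXpress recordings.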

human α1H T-type channels, sequence (O95180 whole entry): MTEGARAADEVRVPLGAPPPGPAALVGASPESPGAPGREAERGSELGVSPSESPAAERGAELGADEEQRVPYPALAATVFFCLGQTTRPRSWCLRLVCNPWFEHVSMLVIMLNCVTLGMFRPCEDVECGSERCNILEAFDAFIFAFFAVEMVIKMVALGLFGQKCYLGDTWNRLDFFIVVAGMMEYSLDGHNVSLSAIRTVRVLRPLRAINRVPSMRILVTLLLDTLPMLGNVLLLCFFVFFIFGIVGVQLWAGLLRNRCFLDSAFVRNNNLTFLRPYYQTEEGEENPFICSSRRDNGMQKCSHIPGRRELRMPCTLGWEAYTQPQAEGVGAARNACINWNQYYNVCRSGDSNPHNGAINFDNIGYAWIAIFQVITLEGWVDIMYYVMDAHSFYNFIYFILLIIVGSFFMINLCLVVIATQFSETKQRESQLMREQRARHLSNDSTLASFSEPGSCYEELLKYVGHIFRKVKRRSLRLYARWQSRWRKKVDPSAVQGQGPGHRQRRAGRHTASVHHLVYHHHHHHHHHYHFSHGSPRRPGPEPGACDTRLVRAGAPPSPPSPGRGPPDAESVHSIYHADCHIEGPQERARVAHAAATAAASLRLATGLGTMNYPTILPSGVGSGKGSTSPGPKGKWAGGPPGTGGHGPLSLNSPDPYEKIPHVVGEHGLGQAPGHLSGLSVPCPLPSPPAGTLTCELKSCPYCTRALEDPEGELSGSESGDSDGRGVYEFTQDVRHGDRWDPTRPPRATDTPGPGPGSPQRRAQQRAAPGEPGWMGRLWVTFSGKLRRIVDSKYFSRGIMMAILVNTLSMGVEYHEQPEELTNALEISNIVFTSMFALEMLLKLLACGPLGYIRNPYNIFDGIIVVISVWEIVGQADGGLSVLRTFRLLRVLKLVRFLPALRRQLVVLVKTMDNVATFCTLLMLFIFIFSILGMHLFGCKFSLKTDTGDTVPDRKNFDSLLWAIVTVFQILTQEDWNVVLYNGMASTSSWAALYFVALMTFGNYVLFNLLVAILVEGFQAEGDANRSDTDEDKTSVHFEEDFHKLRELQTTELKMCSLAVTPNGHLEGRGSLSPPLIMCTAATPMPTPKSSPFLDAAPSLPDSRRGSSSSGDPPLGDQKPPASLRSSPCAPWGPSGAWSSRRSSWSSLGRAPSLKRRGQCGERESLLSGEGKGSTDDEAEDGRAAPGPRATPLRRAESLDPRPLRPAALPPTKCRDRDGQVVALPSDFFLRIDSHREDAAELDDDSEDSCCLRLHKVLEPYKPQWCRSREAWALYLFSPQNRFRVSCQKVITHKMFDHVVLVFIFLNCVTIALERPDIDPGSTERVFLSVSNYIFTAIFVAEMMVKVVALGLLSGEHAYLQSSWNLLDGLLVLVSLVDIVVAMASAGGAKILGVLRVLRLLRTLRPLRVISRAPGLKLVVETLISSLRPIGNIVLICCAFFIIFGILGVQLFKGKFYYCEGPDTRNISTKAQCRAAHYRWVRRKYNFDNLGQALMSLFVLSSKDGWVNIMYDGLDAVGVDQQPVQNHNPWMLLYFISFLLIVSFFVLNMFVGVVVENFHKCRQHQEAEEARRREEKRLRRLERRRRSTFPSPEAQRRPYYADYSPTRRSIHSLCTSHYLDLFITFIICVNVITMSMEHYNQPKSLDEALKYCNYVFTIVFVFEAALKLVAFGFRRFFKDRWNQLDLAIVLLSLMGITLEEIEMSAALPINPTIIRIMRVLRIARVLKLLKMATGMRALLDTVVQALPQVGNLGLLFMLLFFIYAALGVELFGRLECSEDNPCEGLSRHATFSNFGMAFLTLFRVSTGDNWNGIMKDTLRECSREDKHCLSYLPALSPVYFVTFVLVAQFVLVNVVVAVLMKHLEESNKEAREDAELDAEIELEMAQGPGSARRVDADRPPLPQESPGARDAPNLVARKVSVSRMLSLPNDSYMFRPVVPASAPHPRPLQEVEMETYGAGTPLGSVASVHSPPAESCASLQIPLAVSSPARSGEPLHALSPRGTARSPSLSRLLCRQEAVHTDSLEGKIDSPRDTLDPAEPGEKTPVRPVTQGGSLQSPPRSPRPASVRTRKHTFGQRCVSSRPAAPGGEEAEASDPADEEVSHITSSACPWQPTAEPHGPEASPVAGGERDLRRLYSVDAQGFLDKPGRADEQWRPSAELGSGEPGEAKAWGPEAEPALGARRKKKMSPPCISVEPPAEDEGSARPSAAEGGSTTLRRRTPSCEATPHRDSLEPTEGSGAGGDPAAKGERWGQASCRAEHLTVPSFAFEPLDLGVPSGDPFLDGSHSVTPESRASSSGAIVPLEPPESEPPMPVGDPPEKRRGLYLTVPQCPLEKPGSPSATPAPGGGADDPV
human α1G T-type channels, sequence (O43497 whole entry): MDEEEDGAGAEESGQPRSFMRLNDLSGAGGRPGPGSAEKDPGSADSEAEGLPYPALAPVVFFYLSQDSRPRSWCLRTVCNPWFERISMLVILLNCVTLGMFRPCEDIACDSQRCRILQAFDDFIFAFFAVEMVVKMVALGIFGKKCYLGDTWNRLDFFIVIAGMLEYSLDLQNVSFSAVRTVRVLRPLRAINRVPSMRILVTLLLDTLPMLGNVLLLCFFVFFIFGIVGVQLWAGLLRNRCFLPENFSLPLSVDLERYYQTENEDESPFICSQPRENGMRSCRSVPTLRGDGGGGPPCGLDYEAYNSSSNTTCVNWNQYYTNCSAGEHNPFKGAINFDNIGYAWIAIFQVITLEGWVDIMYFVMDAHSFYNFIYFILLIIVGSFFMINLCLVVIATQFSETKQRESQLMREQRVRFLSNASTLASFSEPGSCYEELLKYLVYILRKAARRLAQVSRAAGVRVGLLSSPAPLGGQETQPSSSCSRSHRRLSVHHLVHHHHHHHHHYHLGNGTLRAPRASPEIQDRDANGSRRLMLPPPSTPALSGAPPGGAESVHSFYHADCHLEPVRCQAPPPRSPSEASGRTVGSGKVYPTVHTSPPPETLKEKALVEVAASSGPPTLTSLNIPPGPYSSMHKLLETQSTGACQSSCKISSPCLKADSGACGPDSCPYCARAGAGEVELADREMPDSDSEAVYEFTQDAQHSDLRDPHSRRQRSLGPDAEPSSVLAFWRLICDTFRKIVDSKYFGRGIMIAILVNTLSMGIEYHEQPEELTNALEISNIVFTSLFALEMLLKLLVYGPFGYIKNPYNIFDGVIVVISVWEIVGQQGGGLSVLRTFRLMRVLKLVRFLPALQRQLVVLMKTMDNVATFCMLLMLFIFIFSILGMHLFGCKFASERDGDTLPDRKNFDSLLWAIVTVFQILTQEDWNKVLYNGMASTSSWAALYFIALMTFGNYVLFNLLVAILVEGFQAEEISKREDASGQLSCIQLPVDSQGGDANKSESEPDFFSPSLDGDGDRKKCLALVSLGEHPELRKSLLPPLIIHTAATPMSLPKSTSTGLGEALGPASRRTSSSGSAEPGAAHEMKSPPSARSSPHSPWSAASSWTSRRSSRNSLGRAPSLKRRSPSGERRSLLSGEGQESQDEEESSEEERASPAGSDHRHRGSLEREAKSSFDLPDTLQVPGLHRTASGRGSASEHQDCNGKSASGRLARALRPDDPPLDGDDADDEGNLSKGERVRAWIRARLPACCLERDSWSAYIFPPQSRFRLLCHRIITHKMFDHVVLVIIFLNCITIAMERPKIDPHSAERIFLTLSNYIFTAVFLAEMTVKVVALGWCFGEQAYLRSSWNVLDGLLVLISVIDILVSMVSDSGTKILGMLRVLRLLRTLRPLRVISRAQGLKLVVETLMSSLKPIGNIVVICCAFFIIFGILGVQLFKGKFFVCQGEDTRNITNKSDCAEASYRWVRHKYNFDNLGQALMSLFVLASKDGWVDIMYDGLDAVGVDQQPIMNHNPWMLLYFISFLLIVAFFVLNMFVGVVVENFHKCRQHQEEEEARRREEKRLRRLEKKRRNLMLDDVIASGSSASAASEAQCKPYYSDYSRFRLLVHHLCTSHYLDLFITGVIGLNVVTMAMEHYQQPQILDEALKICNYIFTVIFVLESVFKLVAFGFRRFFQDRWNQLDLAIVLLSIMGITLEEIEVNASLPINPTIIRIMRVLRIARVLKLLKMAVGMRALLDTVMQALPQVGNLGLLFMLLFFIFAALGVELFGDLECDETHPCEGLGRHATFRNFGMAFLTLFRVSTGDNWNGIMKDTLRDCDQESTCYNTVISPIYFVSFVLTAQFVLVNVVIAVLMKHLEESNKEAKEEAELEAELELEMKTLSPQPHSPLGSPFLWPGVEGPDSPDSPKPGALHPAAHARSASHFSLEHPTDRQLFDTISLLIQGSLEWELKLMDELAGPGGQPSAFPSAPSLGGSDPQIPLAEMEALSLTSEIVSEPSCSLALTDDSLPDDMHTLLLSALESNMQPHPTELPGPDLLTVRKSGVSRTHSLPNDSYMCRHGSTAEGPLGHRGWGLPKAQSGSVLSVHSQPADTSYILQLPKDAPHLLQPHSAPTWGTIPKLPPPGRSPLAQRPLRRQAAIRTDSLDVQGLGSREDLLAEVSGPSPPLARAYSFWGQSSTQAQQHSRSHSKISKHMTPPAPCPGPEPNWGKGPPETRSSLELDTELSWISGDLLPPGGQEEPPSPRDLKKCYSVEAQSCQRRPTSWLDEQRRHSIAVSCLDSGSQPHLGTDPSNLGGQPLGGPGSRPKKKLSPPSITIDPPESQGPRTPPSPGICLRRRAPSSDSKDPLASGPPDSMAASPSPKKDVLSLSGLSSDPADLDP

In the case of “1-(trifluoromethyl)-N-((1R,4R)-4- ((3- (trifluoromethyl)phenylsulfonyl) methyl)cyclohexyl) cyclobutanecarboxamide [Compound 109]”, the IC50 in assay [1] and in assay [2] was > 10000 nM each time.

Turning to `O=C(CN[C@H]1CC[C@H](S(=O)(=O)c2cccc(C(F)(F)F)c2)CC1)NCC(F)(F)F` [Compound 68, N-(2,2,2-trifluoroethyl)-2-((1R,4R)-4-(3-(trifluoromethyl)phenylsulfonyl)cyclohexylamino)acetamide], the results for the IC50 in assay [2] and in assay [3] were > 10000 nM and 1720 nM, respectively.

As for `CC1(NC(=O)c2cc(F)cc(Cl)c2)CCC(F)(S(=O)(=O)c2cccc(C(F)(F)F)c2)CC1` (stereo not shown) [Compound 93, 3-chloro-5-fluoro-N-(4-fluoro-1-methyl-4-(3-(trifluoromethyl)phenylsulfonyl)cyclohexyl)benzamide], the values for the IC50 in assay [2] and in assay [3] were > 10000 nM and 240 nM, respectively.

As to `O=C(N[C@H]1CC[C@H](CS(=O)(=O)c2cccc(C(F)(F)F)c2)CC1)c1cc(F)cc(Cl)c1` [Compound 101, 3-chloro-5-fluoro-N-((1R,4R)-4-((3-(trifluoromethyl)phenylsulfonyl)methyl)cyclohexyl)benzamide], the 50% inhibitory concentration (IC50) in assay [1] came to 3670 nM; in assay [2], 3500 nM.

For the molecule `O=C(N[C@H]1CC[C@H](CS(=O)(=O)c2cccc(C(F)(F)F)c2)CC1)C1CCOCC1` [Compound 105, N-((1R,4R)-4-((3-(trifluoromethyl)phenylsulfonyl)methyl)cyclohexyl)tetrahydro-2H-pyran-4-carboxamide], the IC50 in assay [1] was > 10000 nM; in assay [2] it was 2480 nM.

Regarding `O=C(N[C@H]1CC[C@H](CS(=O)(=O)c2cccc(C(F)(F)F)c2)CC1)c1cc(F)cc(C(F)(F)F)c1` [Compound 107, 3-fluoro-5-(trifluoromethyl)-N-((1R,4R)-4-((3-(trifluoromethyl)phenylsulfonyl)methyl)cyclohexyl)benzamide], the IC50 in assay [2] is > 10000 nM; in assay [3] it was 2710 nM.

With `O=C(N[C@H]1CC[C@H](CS(=O)(=O)c2cccc(C(F)(F)F)c2)CC1)c1cc(C(F)(F)F)n[nH]1` [Compound 112, 3-(trifluoromethyl)-N-((lR,4R)-4-((3-(trifluoromethyI)phenylsulfonyl)methyl)cyclohexyl)-1H-pyrazole-5-carboxamide], the IC50 in assay [1] is > 10000 nM; in assay [2], 8360 nM.

As for `O=C(CN[C@H]1CC[C@H](CS(=O)(=O)c2cccc(C(F)(F)F)c2)CC1)Nc1ccccn1` [Compound 120, N-(pyridin-2-yl)-2-((1R,4R)-4-((3-(trifluoromethyl)phenylsulfonyl)methyl)cyclohexylamino)acetamide], the IC50 in assay [2] is > 10000 nM; in assay [3], 580 nM.

Take `CS(=O)(=O)c1ccc(C(=O)N[C@H]2CC[C@H](S(=O)(=O)c3cccc(C(F)(F)F)c3)CC2)c(Cl)c1` [Compound 122, 2-chloro-4-(methylsulfonyl)-N-((1R,4R)-4-(3-(trifluoromethyl)phenylsulfonyl)cyclohexyl)benzamide]: the IC50 in assay [1] was 690 nM; in assay [2] it was 990 nM.

On to `Cc1cc(C(=O)N[C@H]2CC[C@H](CS(=O)(=O)c3cccc(C(F)(F)F)c3)CC2)c(C(F)(F)F)o1` [Compound 172, 5-methyl-2-(trifluoromethyl)-N-((1R,4R)-4-((3-(trifluoromethyl)phenylsulfonyl)methyl)cyclohexyl)furan-3-carboxamide], for which the half-inhibitory concentration (IC50) in assay [1] was > 10000 nM; in assay [2] it was 6730 nM.

As to `CC(C)(C)S(=O)(=O)c1ccsc1C(=O)N[C@H]1CC[C@H](CS(=O)(=O)c2cccc(C(F)(F)F)c2)CC1` [Compound 178, 3-(tert-butylsulfonyl)-N-((1R.4R)-4-((3-(trifluoromethyl)phenylsulfonyl)methyl)cyclohexyl)thiophene-2-carboxamide], the IC50 in assay [2] is > 10000 nM; in assay [3] it was 250 nM.

Take `CC(C)(C(=O)N[C@H]1CC[C@@](F)(S(=O)(=O)c2cc(F)cc(C(F)(F)F)c2)CC1)S(=O)(=O)c1cccc(C(F)(F)F)c1` [Compound 292, N-((1S,4S)-4-fluoro-4-(3-fluoro-5-(trifluoromethyl)phenylsulfonyl)cyclohexyl)-2-methyl-2-(3-(trifluoromethyl)phenylsulfonyl) propanamide]: the IC50 in assay [2] is > 10000 nM; in assay [3], 130 nM.

With `Cc1nc(S(=O)(=O)N[C@H]2CC[C@@](F)(S(=O)(=O)c3cccc(C(F)(F)F)c3)CC2)cn1C` [Compound 294], the IC50 in assay [2] was > 10000 nM; in assay [3] it was 3760 nM.

For `CC1(NC(=O)c2ccc(OC(F)(F)F)cc2)CCC(S(=O)(=O)c2cccc(C(F)(F)F)c2)CC1` (stereo not shown) [Compound 315, N-(1-methyl-4-(3-(trifluoromethyl)phenylsulfonyl)cyclohexyl)-4-(trifluoromethoxy)benzamide], the IC50 is > 10000 nM in assay [2] and 1230 nM in assay [3].

Turning to `Cn1nc(C(F)(F)F)cc1C(=O)N[C@H]1CC[C@@H](S(=O)(=O)c2cc(F)cc(C(F)(F)F)c2)CC1` [Compound 321, N-((1S,4S)-4-(3-fluoro-5-(trifluoromethyl)phenylsulfonyl)cyclohexyl)-1-methyl-3-(trifluoromethyl)-1Hpyrazole-5-carboxamide], the IC50 is > 10000 nM in assay [2] and 1920 nM in assay [3].

Take `O=C(N[C@H]1CC[C@@](F)(S(=O)(=O)c2cc(F)cc(C(F)(F)F)c2)CC1)c1cc(F)cc(Cl)c1` [Compound 326, 3-chloro-5-fluoro-N-((1S,4S)-4-fluoro-4-(3-fluoro-5-(trifluoromethyl)phenylsulfonyl)cyclohexyl) benzamide]: the IC50 in assay [2] is 1480 nM; in assay [3], 330 nM.

In the case of `O=C(NC[C@H]1C[C@H](S(=O)(=O)c2cccc(C(F)(F)F)c2)C1)c1ccnc(C(F)(F)F)n1` [Compound 362, 2-(trifluoromethyl)-N-(((1R,3R)-3-(3-(trifluoromethyl)phenylsulfonyl)cyclobutyl)methyl)pyrimidine-4-carboxamide], the half-inhibitory concentration (IC50) is > 10000 nM in assay [2] and 370 nM in assay [3].

Consider `COc1cc(C(=O)NC[C@H]2C[C@H](S(=O)(=O)c3cccc(C(F)(F)F)c3)C2)cc(Cl)n1` [Compound 363, 2-chloro-6-methoxy-N-(((1R,3R)-3-(3-(trifluoromethyl)phenylsulfonyl)cyclobutyl)methyl)isonicotinamide], for which the 50% inhibitory concentration (IC50) in assay [2] is > 10000 nM; in assay [3] it was 310 nM.

In the case of `COc1cc(C(=O)NC[C@H]2C[C@@H](S(=O)(=O)c3cccc(C(F)(F)F)c3)C2)cc(Cl)n1` [Compound 380, 2-chloro-6-methoxy-N-(((1S,3S)-3-(3-(trifluoromethyl)phenylsulfonyl)cyclobutyl)methyl)isonicotinamide], the IC50 in assay [2] is > 10000 nM; in assay [3], 1470 nM.

Turning to `O=C(NC[C@H]1C[C@@H](S(=O)(=O)c2cccc(C(F)(F)F)c2)C1)c1cc(F)cc(Cl)c1` [Compound 381, 3-chloro-5-fluoro-N-(((1S,3S)-3-(3-(trifluoromethyl)phenylsulfonyl)cyclobutyl)methyl)benzamide], the IC50 in assay [2] is > 10000 nM; in assay [3], 590 nM.

Take `O=C(Nc1ccc(Oc2ccc(Cl)cc2)cc1)[C@H]1C[C@H](S(=O)(=O)c2cccc(C(F)(F)F)c2)C1` [Compound 404, (1R,3R)-N-(4-(4-chlorophenoxy)phenyl)-3-(3-(trifluoromethyl)phenylsulfonyl)cyclobutane carboxamide]: the IC50 is > 10000 nM in assay [2] and 3330 nM in assay [3].

Turning to `O=C(CN[C@H]1C[C@H](S(=O)(=O)c2cccc(C(F)(F)F)c2)C1)NC1CCC(F)(F)CC1` [Compound 428, N-(4,4-ditluorocyclohexyl)-2-((1R,3R)-3-(3-(trifluoromethyl)phenylsulfonyl)cyclobutylamino) acetamide], the IC50 is > 10000 nM in assay [2] and 960 nM in assay [3].

On to `CC([C@H]1C[C@H](NC(=O)c2ccc(F)c(C(F)(F)F)c2)C1)S(=O)(=O)c1cccc(C(F)(F)F)c1` (stereo partly drawn) [Compound 433, 4-fluoro-3-(trifluoromethyl)-N-((1R,3R)-3-((R)-1-(3-(trifluoromethyl)phenylsulfonyl)ethyl)cyclobutyl)benzamide], for which the IC50 in assay [2] is > 10000 nM; in assay [3], 220 nM.

A word on the IC50: it is the concentration that gives 50% inhibition.

For the origin of these results see patent publication US20120245137A1 (Zalicus Pharmaceuticals Ltd., priority 2009, published 2012).
